Test results reported in US10072055B2, “Anti-inflammatory pharmaceutical products” (Resother Pharma APS, priority 2011, dated 2018).
Entries after “also recorded” stand apart in the source; their conditions may differ. One block for each substance: values may come before it. Ends that are not written are not given here.

Legend:
[1] = system: PMN interaction to an activated HUVEC monolayer; assay: Flow chamber assay: PMN interaction with activated HUVEC monolayer (capture, rolling, adhesion); type: cell-based, human; details: for inhibition of PMN interaction with HUVECs (capture, adhesion, rolling): 10 μM peptide, 10 min at 37° C., flow 8 min at 1 dyne/cm^2; for inhibition of PMN/neutrophil-endothelium interactions in flow chamber: concentration not given; for lowest concentration with activity on PMN-HUVEC interactions: flow chamber model
Source text: FIGS. 2A-2C are a series of charts reporting data from flow chamber analysis to determine the inhibitory capability of five polypeptides of the present disclosure (Pep57 (SEQ ID NO:12); Pep59 (SEQ ID NO:13), Pep60 (SEQ ID NO:15), Pep83 (SEQ ID NO:16) and Pep84 (SEQ ID NO:14)) and Ac-ANAX1(2-26)-OH to reduce PMN interaction to an activated HUVEC monolayer.
FIGS. 4A-4C are a series of bar charts reporting percent inhibition provided by three polypeptides (UGP022 (SEQ ID NO:5); UGP025 (SEQ ID NO:7) and UGP026 (SEQ ID NO:8)) of the present disclosure, at different concentrations, on three different parameters (capture—FIG. 4A; rolling—FIG. 4B; and adhesion—FIG. 4C).
FIGS. 2A-2C are a series of charts reporting data from flow chamber analysis to determine the inhibitory capability of five polypeptides (Pep57 (SEQ ID NO: 12); Pep59 (SEQ ID NO: 13), Pep60 (SEQ ID NO: 15), Pep83 (SEQ ID NO: 16) and Pep84 (SEQ ID NO: 14)) of the present disclosure and Ac-ANAX1(2-26)-OH to reduce PMN interaction to an activated HUVEC monolayer. PMNs (5×10^6) were incubated with 10 μM of the various peptides for 10 min at 37° C. The PMNs were then flowed for 8 min at 1 dyne/cm^2, prior to quantifying the degree of PMN interaction with the HUVECs, both as PMN capture (FIG. 2A), adhesion (FIG. 2B) and rolling (FIG. 2C). […] Data are mean±SEM of 3 independent experiments (with distinct PMN and HUVEC preparations); *=P<0.05 vs. CT group, data analyzed using one way ANOVA.
FIGS. 4A-4C make a direct comparison of the activities of UGP022 (SEQ ID NO:5), UGP025 (SEQ ID NO: 7) and UGP026 (SEQ ID NO: 8) in the flow chamber assay, presenting the degree of inhibition on the three parameters under analysis (capture (FIG. 4A); rolling (FIG. 4B) and adhesion (FIG. 4C)).

[2] = system: leukocyte recruitment into the inflamed airpouch; assay: Mouse IL-1β air-pouch inflammation model (leukocyte migration); type: in vivo; details: for inhibition of leukocyte infiltration/recruitment in air-pouch model: mouse air-pouch
Protocol: FIG. 3A and FIG. 3B are a series of bar charts comparing the anti-inflammatory effects of three polypeptides (Pep57 (SEQ ID NO:12); Pep59 (SEQ ID NO:13) and Pep84 (SEQ ID NO:14)) of the present disclosure versus a vehicle-only control.
FIG. 3A and FIG. 3B are a series of bar charts comparing the anti-inflammatory effects of three polypeptides (Pep57 (SEQ ID NO: 12); Pep59 (SEQ ID NO: 13) and Pep84 (SEQ ID NO: 14)) of the present disclosure versus a vehicle-only control. Mice received 200 μl i.v. of saline+DMSO or a dose of 50 μg per animal of one of the three Ac2-26 derived peptides, immediately before the local injection of mouse IL-1β into 6-day-old airpouches. The extent of cell migration was determined 4 h later, following airpouch washing and staining of migrated cells with Gr1 marker. […] Data are mean±SEM of 5 mice per group. *P<0.05 vs. vehicle group (one way ANOVA).

FPR2 [3] = target: T1, FPR2 (Homo sapiens, UniProt P25090); assay: p-ERK activation in HEK-FPR2 cells (western blot, densitometry p-ERK vs t-ERK); type: cell-based; parameters: expressed in transfected cells; host or cells: HEK cells (HEK-FPR2); details: for p-ERK activation through the FPR2 receptor: 10 μM peptide, 8 minutes, HEK-FPR2 cells
T1 sequence (P25090 1-351): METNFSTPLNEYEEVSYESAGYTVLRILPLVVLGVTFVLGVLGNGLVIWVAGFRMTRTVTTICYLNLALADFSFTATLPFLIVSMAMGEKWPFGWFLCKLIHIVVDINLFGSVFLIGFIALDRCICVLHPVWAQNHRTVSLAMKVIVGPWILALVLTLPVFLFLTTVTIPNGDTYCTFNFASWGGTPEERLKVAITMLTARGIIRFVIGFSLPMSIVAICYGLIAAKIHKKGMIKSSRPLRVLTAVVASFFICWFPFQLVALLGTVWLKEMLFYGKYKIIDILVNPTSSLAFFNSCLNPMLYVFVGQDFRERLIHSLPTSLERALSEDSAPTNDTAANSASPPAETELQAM
Source text: FIG. 1A and FIG. 1B show western blotting analysis comparing p-ERK activation potency through the FPR2 receptor for five polypeptides of the present disclosure (Pep57 (SEQ ID NO:12); Pep59 (SEQ ID NO:13), Pep60 (SEQ ID NO:15), Pep83 (SEQ ID NO:16) and Pep84 (SEQ ID NO:14)) relative to Ac-ANAX1(2-26)-OH. FIG. 1A is a representative blot for p-ERK and t-ERK.
The experiments whose results are reported in FIG. 1A and FIG. 1B were directed to determining which of the five polypeptides tested (Pep57 (SEQ ID NO: 12); Pep59 (SEQ ID NO: 13), Pep60 (SEQ ID NO: 15), Pep83 (SEQ ID NO: 16) and Pep84 (SEQ ID NO: 14)) best activated the p-ERK through the FPR2 receptor, similar to Ac-ANAX1(2-26)-OH, the parent peptide. The HEK-FPR2 cells were co-incubated with 10 μM of the novel Ac2-26 peptides for 8 minutes following which the cell were lysed and resuspended in cell lysis solution. Then 100 ng of total protein were loaded on to 10% polyacrylamide gel. Following electrophoresis, transfer and blocking the membrane was first probed with an anti p-ERK antibody and then stripped and reprobed with and anti total ERK antibody. […] Data presented as mean and SEM of 3 distinct experiments with one way ANOVA employed for statistical analysis. (*=P<0.05 vs. CT).

FPR2 [4] = target: T1, FPR2; assay: Binding affinity to FPR2
FPR1 = target: T2, FPR1 (Homo sapiens, UniProt P21462); assay: FPR1 activation (ERK phosphorylation and intracellular calcium fluxes); type: cell-based
T2 sequence (P21462 1-350): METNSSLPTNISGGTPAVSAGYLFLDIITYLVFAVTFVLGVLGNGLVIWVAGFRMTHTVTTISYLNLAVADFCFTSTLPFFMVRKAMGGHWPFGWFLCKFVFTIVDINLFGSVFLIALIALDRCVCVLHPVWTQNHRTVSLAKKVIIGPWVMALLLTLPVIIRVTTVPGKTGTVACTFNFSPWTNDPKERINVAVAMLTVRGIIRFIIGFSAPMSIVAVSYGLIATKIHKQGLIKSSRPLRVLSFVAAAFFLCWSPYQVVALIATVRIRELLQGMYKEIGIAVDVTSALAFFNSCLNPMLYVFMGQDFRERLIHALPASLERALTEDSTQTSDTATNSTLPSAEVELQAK

FPR2 [5] = target: T1, FPR2; assay: FPR2 activation (ERK phosphorylation and intracellular calcium fluxes); type: cell-based
[6] = 50 μg per animal i.v., IL-1β, 4 h

Substance: Met11,22-Ac-ANAX1(2-26)-OH (Ac-AMVSEFLKQMWFIENEEQEYMQTVK-OH) [Pep84]
inhibition of PMN interaction with HUVECs (capture, adhesion, rolling) [1]: displayed inhibitory properties similar to those observed in the parent Ac2-26 peptide
inhibition of PMN/neutrophil-endothelium interactions in flow chamber [1]: significantly inhibited PMN-HUVEC interactions
lowest concentration with activity on PMN-HUVEC interactions [1]: 10 pM
migrated cell count in air-pouch (FIG. 3A) [2, 6]: display anti-inflammatory properties
inhibition of leukocyte infiltration/recruitment in air-pouch model [2]: inhibiting this inflammatory readout to a larger extent
downstream signaling via the FPR family of receptors (FPR2 [3]): lead to downstream signaling via the FPR family of receptors
p-ERK activation through the FPR2 receptor (FPR2 [3]): p-ERK activated was observed to be highest

Substance: Leu11,22-Ac-ANAX1(2-26)-OH (Ac-AMVSEFLKQLWFIENEEQEYLQTVK-OH) [Pep57, 25 amino acids; Annexin 1 (2-26), residues 10 and 21 leucine, residue 1 acetylated]
inhibition of PMN interaction with HUVECs (capture, adhesion, rolling) [1]: displayed inhibitory properties similar to those observed in the parent Ac2-26 peptide
inhibition of PMN/neutrophil-endothelium interactions in flow chamber [1]: significantly inhibited PMN-HUVEC interactions
lowest concentration with activity on PMN-HUVEC interactions [1]: 10 pM
GR1+ve cells in air-pouch (FIG. 3B) [2, 6]: losing this observed effect
migrated cell count in air-pouch (FIG. 3A) [2, 6]: display anti-inflammatory properties
inhibition of leukocyte infiltration/recruitment in air-pouch model [2]: significantly inhibiting leukocyte infiltration; also recorded: displayed inhibitory potential in the model
downstream signaling via the FPR family of receptors (FPR2 [3]): lead to downstream signaling via the FPR family of receptors
p-ERK activation through the FPR2 receptor (FPR2 [3]): p-ERK activated was observed to be highest

Substance: Ac-ANAX1(2-26)-OH (Ac-AMVSEFLKQAWFIENEEQEYVQTVK-OH) [Ac2-26, parent peptide; mimics the 2nd to the 26th amino acids of the Annexin A1 N-terminal region, N-terminally acetylated, reference compound]
inhibition of PMN interaction with HUVECs (capture, adhesion, rolling) [1]: inhibitory properties
p-ERK activation through the FPR2 receptor (FPR2 [3]): activation caused by the parent Ac2-26

Substance: Asp11,22-Ac-ANAX1(2-26)-OH (Ac-AMVSEFLKQDWFIENEEQEYDQTVK-OH) [Pep59, 25 amino acids; Annexin 1 (2-26), residues 10 and 21 aspartic acid, residue 1 acetylated]
inhibition of PMN interaction with HUVECs (capture, adhesion, rolling) [1]: did not display any inhibitory properties in this assay
downstream signaling via the FPR family of receptors (FPR2 [3]): lead to downstream signaling via the FPR family of receptors
p-ERK activation through the FPR2 receptor (FPR2 [3]): p-ERK activated was observed to be highest; also recorded: very high p-ERK activation potential

Substance: Ile11,22-Ac-ANAX1(2-26)-OH (Ac-AMVSEFLKQIWFIENEEQEYIQTVK-OH) [Pep83, 25 amino acids; Annexin 1 (2-26), residues 10 and 21 isoleucine, residue 1 acetylated]
inhibition of PMN interaction with HUVECs (capture, adhesion, rolling) [1]: only Pep57 (SEQ ID NO: 12), Pep60 (SEQ ID NO: 15) and Pep84 (SEQ ID NO: 14) display inhibitory properties

Substance: Glu11,22-Ac-ANAX1(2-26)-OH (Ac-AMVSEFLKQEWFIENEEQEYEQTVK-OH) [Pep60, 25 amino acids; Annexin 1 (2-26), residues 10 and 21 glutamic acid, residue 1 acetylated]
inhibition of PMN interaction with HUVECs (capture, adhesion, rolling) [1]: displayed potent inhibitory properties similar to those displayed by the parent Ac2-26 peptide
p-ERK activation through the FPR2 receptor (FPR2 [3]): not that effective to phosphorylate ERK

Second part, led by results:

activation of FPR1 (FPR1): could activate both FPR1 and FPR2
activation of FPR2 (FPR2 [5]): could activate both FPR1 and FPR2
Substance: ANXA1(2-50) Gly51-OH (AMVSEFLKQAWFIENEEQEYVQTVKSSKGGPGSAVSPYPTFNPSSDVAAG-OH; ends and bridges not checked) [UGP021, 50 amino acids; amino acids 2-50 of human Annexin 1, position 50 of the polypeptide is glycine]
inhibition of PMN/neutrophil-endothelium interactions in flow chamber [1]: more potent than Ac-ANXA1(2-26)-OH and full length ANXA1
inhibition of leukocyte infiltration/recruitment in air-pouch model [2]: more potent than Ac-ANXA1(2-26)-OH and full length ANXA1; also recorded: possess anti-inflammatory activities in an in vivo assay of leukocyte recruitment
binding affinity to FPR2 (FPR2 [4]): binding affinity to the FPR2 in the nanomolar range

activation of FPR1 (FPR1): could activate both FPR1 and FPR2
activation of FPR2 (FPR2 [5]): could activate both FPR1 and FPR2
Substance: ANXA1(2-50)-OH (AMVSEFLKQAWFIENEEQEYVQTVKSSKGGPGSAVSPYPTFNPSSDVAA-OH; ends and bridges not checked) [UGP024, 49 amino acids; amino acids 2-50 of human Annexin 1]
inhibition of PMN/neutrophil-endothelium interactions in flow chamber [1]: more potent than Ac-ANXA1(2-26)-OH and full length ANXA1
inhibition of leukocyte infiltration/recruitment in air-pouch model [2]: more potent than Ac-ANXA1(2-26)-OH and full length ANXA1; also recorded: possess anti-inflammatory activities in an in vivo assay of leukocyte recruitment
